Earlier results as cited in patent publication US9583325B2, “System and method of delicate membrane condensed phase membrane introduction mass spectrometry (CP-MIMS)” (priority 2013, dated 2017).

How the values were obtained:
[1] = SRC Physical Properties Database
[2] = for Log Kow: Table 1, SRC Physical Properties Database

Molecule | Vapour pressure [1] | Log Kow [2] | log Kow ([2]; values given in text of Example 10)
Cc1ccc(C)c(OCCCC(C)(C)C(=O)O)c1 [Gemfibrozil, 5-(2,5-dimethylphenoxy)-2,2-dimethyl-pentanoic acid] | 8.1 × 10^−5 Pa | 4.30 | –
Oc1cc(Cl)ccc1Oc1ccc(Cl)cc1Cl [Triclosan, 5-chloro-2-(2,4-dichlorophenoxy)phenol] | 8.6 × 10^−5 Pa | 4.76 | –
CC(C)C1=CC2=CC[C@@H]3[C@](C)(CCC[C@@]3(C)C(=O)O)[C@H]2CC1 [Abietic Acid, Abietic acid] | 4.3 × 10^−5 Pa | 6.46 | –
nonylphenol | 1.15 Pa | 5.76 | 6.04
